Measurements reported in ChEMBL document CHEMBL1287752, “Changes in flavonoid content and tyrosinase inhibitory activity in kenaf leaf extract after far-infrared treatment” (Bioorg Med Chem Lett, 2010).

Legend:
Tyrosinase = biological target: T1, Tyrosinase (Agaricus bisporus, UniProt O42713); experiment: Inhibition of mushroom tyrosinase after 20 mins by spectrophotometric analysis
T1 sequence (O42713 whole entry): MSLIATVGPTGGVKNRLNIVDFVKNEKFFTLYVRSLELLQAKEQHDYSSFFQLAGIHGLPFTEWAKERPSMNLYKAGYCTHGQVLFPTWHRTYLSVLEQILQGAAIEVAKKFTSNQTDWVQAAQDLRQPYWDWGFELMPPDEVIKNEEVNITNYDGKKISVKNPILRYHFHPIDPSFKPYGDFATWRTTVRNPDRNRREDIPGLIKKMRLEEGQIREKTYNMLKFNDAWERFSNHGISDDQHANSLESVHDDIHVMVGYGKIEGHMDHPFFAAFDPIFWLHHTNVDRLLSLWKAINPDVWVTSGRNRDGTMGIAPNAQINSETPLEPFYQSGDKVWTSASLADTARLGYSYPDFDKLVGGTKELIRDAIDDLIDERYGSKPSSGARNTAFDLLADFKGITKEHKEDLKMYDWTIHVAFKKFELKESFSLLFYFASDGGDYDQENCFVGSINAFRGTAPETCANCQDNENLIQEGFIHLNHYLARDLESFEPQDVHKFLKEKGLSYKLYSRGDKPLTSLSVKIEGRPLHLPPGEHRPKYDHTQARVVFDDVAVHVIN

[1] = biological target: T2, Tyrosinase (Agaricus bisporus) (UniProt O42713); conditions: 400 uM
T2 sequence (whole entry): T1 sequence (O42713 whole entry)
Description: Inhibition of mushroom tyrosinase at 400 uM after 20 mins by spectrophotometric analysis

Structure (SMILES)	IC50 (Tyrosinase) [µM]	inhibition [1] [%]
C[C@@H]1O[C@@H](Oc2cc(O)c3c(=O)c(O)c(-c4ccc(O)cc4)oc3c2)[C@H](O)[C@H](O)[C@H]1O [ALPHA-RHAMNOISOROBIN]	> 400	< 39.1
O=c1c(O)c(-c2ccc(O)cc2)oc2cc(O)cc(O)c12 [KAEMPFEROL]	171	
